This is an account of results in ChEMBL document CHEMBL1157539, “Thousands of chemical starting points for antimalarial lead identification” (Nature, 2010).

The subject of the assay is Plasmodium falciparum. In words: GSK_TCMDC: Inhibition of Plasmodium falciparum 3D7 in whole erythrocytes, using parasite LDH activity as an index of growth. In kind it is functional, organism-based. Conditions: Plasmodium falciparum, 3D7.

`CC(C)COc1ccc(Cl)cc1Cc1ccc(-c2nc3ccc(Cl)cc3[nH]2)o1` had an XC50 of 0.925 µM. For `CCN1CCN(Cc2ccc(-c3ccc(NS(=O)(=O)c4cccc5cccnc45)cc3)cc2)CC1`, the XC50 came out at 0.922 µM.

The compound `O=S(=O)(/C=C/c1ccccc1)N(Cc1ccc(-c2ccc(CNCCc3ccccn3)cc2)cc1)CC1CCCCN1` (stereo not given) showed an XC50 of 0.742 µM. Consider `O=C(Cn1c(CCc2cccc(F)c2F)nc(=O)c2cccnc21)N(Cc1ccc(-c2ccc(C(F)(F)F)cc2)cc1)C1CCN(C2CCSCC2)CC1`, for which the XC50 was determined as 0.23 µM. `O=C(/C=C/c1ccc(Cl)c(Cl)c1)NCCCCCCN1CCCN(C(=O)Nc2ccc(Cl)c(Cl)c2)CC1` returned an XC50 of 0.666 µM. The compound `CC(=O)/N=C1\N=C(NC(C)=O)NC(C)(C)N1OCCCOc1ccc(Cl)c(Cl)c1` came in with an XC50 of 0.00833 µM. With `Cc1cccc(-c2cc3cc(Nc4ccnc5cc(-c6nccs6)ccc45)ccc3[nH]2)c1` the figure was 0.174 µM; with `COc1ccc(N(c2nc(-c3cc(Cl)ccc3Cl)cs2)C2CCNC2)cc1` (stereo not given), 0.873 µM; with `CCCc1cccc(C)c1OCCCON1C(=N)N=C(N)NC1(C)C`, 0.0032 µM. To `COc1cc(Cc2cnc(N)nc2N)cc(OCCCOc2ccccc2)c1OC` belongs 1.08 µM; to `CC1CCN(c2nc(C(=O)Nc3cccc4c3CCCC4)c(C(C)C)s2)CC1`, 1.04 µM.

As for `Cc1cccc(C(=O)Nc2ccnc(N3CCC(N(C)Cc4ccccc4)CC3)c2)c1`, the XC50 was 0.962 µM. `N#Cc1ccc(C=Cc2nccc3c2[nH]c2ccccc23)cc1`: the XC50 amounted to 0.643 µM.

`CCc1c(CCNCCCCCCNC(C)Cc2ccc3c(c2CC)OCO3)ccc(OC)c1OC` (stereo not given) had an XC50 of 0.87 µM. To `CN1CCCc2cc(NC(=O)C=Cc3ccc(-c4ccc(F)cc4F)o3)ccc2C1` belongs 0.783 µM; to `CCCCCCCCn1c2c(c(=N)c3c1CCC3)CCC2`, 0.222 µM; to `Cc1cccc2nc(-c3ccc(-c4ccc(NC(=O)Nc5ccc(Cl)c(Cl)c5)cc4)s3)[nH]c12`, 0.176 µM. With `CCCCCCCCCC(=O)NCC1CC(Br)=NO1` (stereo not given), the XC50 stood at 1.05 µM. With `COc1cc(F)c2ncc(Cl)c([C@H](O)CN3CCC(NCc4ccc5c(n4)NC(=O)CO5)CC3)c2c1` the figure was 0.161 µM. In turn, `O=C(/C=C/c1ccc(Cl)c(Cl)c1)N1CCC2CC(N3CCC(c4c[nH]c5ccccc45)CC3)CCC2C1` (stereo not given) showed an XC50 of 0.171 µM. `CC(C)(C)NCCN(Cc1ccc(-c2ccc(C(F)(F)F)cc2)cc1)C(=O)Cn1c(CCc2cccc(F)c2F)nc(=O)c2ccccc21` showed an XC50 of 0.764 µM.

Consider `CC(C)(C)c1ccc(OCC(=O)NC2CCN(c3ccnc4cc(Cl)ccc34)C2)cc1` (stereo not given), for which the XC50 was 0.135 µM. As to `NC1CCN(Cc2cccc(-c3ccc(-c4nc5cc(C(F)(F)F)ccc5[nH]4)cc3)c2)C1` (stereo not given), the XC50 was 0.698 µM. Consider `N=c1c2c(n(Cc3cccc(Cl)c3)c3c1CCC3)CCCC2`, for which the XC50 stood at 0.194 µM. `NCc1cccc(-c2ccc3ccnc(N)c3c2)c1` registered an XC50 of 0.168 µM. The compound `N#Cc1ccc(N/C(=N\c2ccc(-c3ccccc3)cc2)NCCc2c[nH]c3ccccc23)c(O)c1` returned an XC50 of 0.336 µM. Regarding `O=C(/C=C/c1ccccc1O)NCCCCCN1CCC(c2c[nH]c3ccccc23)CC1`, the XC50 came to 0.827 µM. Regarding `CC(C)(C(=O)Nc1ccc(N2CCC3(CCCN(CC4CC4)C3)CC2)c(Cl)c1)c1cccc(C(F)(F)F)c1`, the XC50 came out at 2 µM.

`CC1(C)N=C(N)N=C(N)N1OCCCOc1cccc(C(=O)O)c1` returned an XC50 of 0.0399 µM. With `CCC(O)(C#Cc1c(C)nc(N)nc1N)CC` the figure was 0.639 µM.

Compound `C[C@H](Cc1ccc(OCCNC[C@H](O)c2cccc(Cl)c2)cc1)NC[C@H](O)c1ccc(Cl)c(Cl)c1` had an XC50 of 0.958 µM. To `O=C(/C=C/c1ccc(Cl)cc1)NCCCCCN1CCCC(C(=O)Nc2ccc(Cl)cc2)C1` (stereo not given) belongs 1.05 µM; to `N=C(N)NCCCN(Cc1ccccc1)c1ccccc1`, 0.579 µM. Compound `CS(=O)(=O)Nc1ccc2c(C3CCN(CC4CCN(C(=O)/C=C/c5ccc(Cl)c(Cl)c5)CC4)CC3)c[nH]c2c1` returned an XC50 of 0.761 µM.

With `O=C(Cc1ccc(NC(=O)c2ccc(O)c(-c3cccc([N+](=O)[O-])c3)c2)cc1)NCCN1CCCCC1`, the XC50 is 0.895 µM.

Take `O=C(Nc1ccc(N2CCN(C(=O)/C=C/c3ccccc3)CC2)c(Cl)c1)c1ccc([N+](=O)[O-])o1`: the XC50 amounted to 0.859 µM. To `O=C(N[C@H]1CCN(CCc2ccc(O[C@H]3CCNC3)c(Cl)c2)C1)c1ccc(Cl)c(Cl)c1` belongs 0.89 µM; to `c1ccc(Oc2ccc(Nc3ccnc4cc(-c5csc(CN6CCCCC6)n5)ccc34)cc2)nc1`, 0.579 µM. With `CN(C)CCN(Cc1ccccc1-c1ccc(CNCCc2ccccc2)cc1)C(=O)NC1CCCCC1` the figure was 0.906 µM.

For the compound `CN1CCN(CCCCCNc2c3ccccc3nc3ccccc23)CC1`, the XC50 is 0.741 µM. As to `N#Cc1c(F)cc(N2CCC(NCC[C@H](N)Cc3ccc(F)c(F)c3)CC2)cc1F`, the XC50 is 0.857 µM. `Cc1cc(C(=O)Nc2nc(-c3ccccn3)nc3ccsc23)no1` had an XC50 of 0.807 µM. To `COc1ccc2ncc(F)c(CCN3CCC(NCc4cc(C)c5c(c4)OCCO5)CC3)c2n1` belongs 0.493 µM.

As to `N#Cc1ccc(CN2CCC(Oc3ccc(NC(=O)c4cccs4)cc3Cl)C2)cc1` (stereo not given), the XC50 amounted to 0.402 µM. To `CCCc1cc(C(=O)N[C@@H](Cc2ccccc2)[C@H](O)CNC(C)C)c(F)c(N2CCCC2=O)c1` belongs 0.943 µM; to `O=C(Nc1ccc(-c2ccc(-c3nc4ccccc4[nH]3)s2)cc1)c1ccncc1`, 0.789 µM.

Take `COc1ccc(-c2cccc(NC(=O)c3cccc(C#N)c3)c2)cc1CN1CCCC1`: the XC50 was found to be 0.748 µM. As to `Cc1ccc(Oc2cnn(C)c(=O)c2Nc2cccc(C(=O)NCCc3ccccn3)c2)c(C)c1`, the XC50 is 0.494 µM. In the case of `O=C(Nc1ccc(Cl)cc1)Nc1ccc(-c2cccc(-c3nc4ccccc4[nH]3)c2)cc1`, the XC50 is 0.157 µM. For the compound `CC(C)(C)COC(=O)c1ccc(NC(=O)N[C@@H](Cc2ccc(O)cc2)C(=O)NC2CCN(Cc3ccc(O)cc3)C2)cc1` (stereo not given in full), the XC50 is 0.668 µM.

Take `Fc1cccc(COc2ccc(Nc3ncnc4sc(C#C[C@H]5CC[C@H](CNCC(F)(F)F)N5)cc34)cc2Cl)c1`: the XC50 is 1.42 µM.

`COc1ccc(CN(C)CCOc2ccc(NC(=O)c3cccc4c(=O)cc(-c5ccccc5)[nH]c34)cc2)cc1OC` came in with an XC50 of 0.921 µM. To `CC(=O)c1sc(Cc2nc3ccccc3s2)nc1C` belongs 1.07 µM. To `Cc1cccc2nc(-c3ccc(-c4cccc(CN5CCN(c6ccc(C#N)cn6)CC5)c4)s3)[nH]c12` belongs 1.42 µM. With `N=C(N)NN=Cc1c2ccc(Cl)cc2c(Cl)c2ccc(Cl)cc12` the figure was 0.958 µM; with `Cc1n[nH]c2cc(Nc3nccc(Nc4ccc(Oc5ccccc5)cc4)n3)ccc12`, 0.6 µM.

`N[C@@H](Cc1cc(I)c(Oc2ccc(O)c(Cl)c2)c(I)c1)C(=O)O`: the XC50 is 0.993 µM.

Take `CN1CCN(CCCN(Cc2cccc(-c3ccc(CNCc4ccc5c(c4)OCO5)cc3)c2)C(=O)CCC2CCCC2)CC1`: the XC50 is 1 µM. For the compound `Cc1ccc(C(C#N)c2ccc3c(C(F)(F)F)cc(C(F)(F)F)nc3n2)cc1` (stereo not given), the XC50 stood at 0.7 µM.

On to `Nc1cc(-c2ccc3c(N)nccc3c2)ccc1Cl`, for which the XC50 was found to be 1.54 µM. To `CN1CCC(C(=O)Nc2ccc(-c3cccc(-c4nc5cc(C(F)(F)F)ccc5[nH]4)c3)cc2)CC1` belongs 0.577 µM.

Take `Cc1c(Cl)ccc2sc(N3CCN(C(=O)c4ccc([N+](=O)[O-])o4)CC3)nc12`: the XC50 is 0.745 µM. With `CC1(C)CCC(=Cc2ccc(Cl)cc2)CC1(O)Cn1ccnc1` (stereo not given), the XC50 was 0.743 µM. As to `Cc1cccc2nc(-c3cccc(-c4ccc(NC(=O)C(C)CN(C)C)cc4)c3)[nH]c12` (stereo not given), the XC50 came out at 0.222 µM. For `CCN(CCNC(=O)Cn1c(C)cc2cc([N+](=O)[O-])ccc21)c1cccc(C)c1`, the XC50 worked out at 1.01 µM. With `CC(=O)Nc1csc(-c2cnc(/C=C(\C)C[C@@H]3OC[C@H](C[C@@H]4O[C@H]4[C@@H](C)[C@H](C)O)[C@@H](O)[C@H]3O)o2)c1` the figure was 0.178 µM. In turn, `Cc1ccc(O)cc1Nc1ccnc2ccc(-c3cccc(CNCCN(C)C)c3)cc12` yielded an XC50 of 0.612 µM. With `CC(Cc1ccc(SC(C)C)cc1)NCC(O)c1cccc(Cl)c1` (stereo not given) the figure was 0.827 µM. As to `Cc1cc(N2CCN(C)CC2)nc2ccc(NC(=O)Cc3cccc(C(F)(F)F)c3)cc12`, the XC50 turned out to be 0.737 µM.

`COc1c(C2CCN(CCCCNC(=O)c3oc(-c4ccc(Cl)cc4)cc3CO)CC2)ccc2c1CCCC2` registered an XC50 of 0.367 µM. `CC(C)[C@H](NC(=O)c1c(F)cccc1F)C(=O)Nc1ccc(Cc2nc3ccccc3s2)cc1` had an XC50 of 0.498 µM. With `CCn1c(-c2nc(-c3ccc4c(c3)OCO4)cnc2N)nc2cnccc21` the figure was 0.429 µM; with `COc1cc(C(=O)NC2CCN(Cc3ccccc3)CC2)ccc1-c1nc2cc(Cl)c(Cl)cc2[nH]1`, 0.521 µM; with `COc1ccc(NC(=O)c2ccc(-c3nc(-c4ccccc4)cs3)cc2)cc1N1CCN(C)CC1`, 0.992 µM.

Compound `COc1cccc(Nc2nc(C)cc(NCc3ccc(-c4c(C)noc4C)cc3)n2)c1` gave an XC50 of 0.88 µM. The compound `CC(C)(C)c1ccc(-c2csc(NC(=O)CC(c3ccccc3)c3ccccc3)n2)cc1` had an XC50 of 1.15 µM. Consider `CCc1ccccc1OCCCON1C(=N)N=C(N)NC1(C)C`, for which the XC50 was determined as 0.0032 µM.

In the case of `Cc1cccc2nc(-c3cccc(-c4ccc(CNCc5cnn(-c6ccccc6)n5)cc4)c3)[nH]c12`, the XC50 is 0.921 µM. To `CCn1c(Cc2ccccc2)nnc1SCC(=O)N1c2ccccc2Sc2ccccc21` belongs 0.588 µM; to `CS(=O)(=O)c1cccc(-c2ccc3oc(C(N)=O)c(NC(=O)c4cccs4)c3c2)c1`, 0.589 µM. In the case of `CN(C)CCOc1cc(NC(=O)/C=C/c2cccc3ccccc23)ccc1I`, the XC50 was 1.26 µM.

`COc1ccc(C(=O)CCC(=O)N(CCSC(C)(C)C)Cc2ccc(-c3ccc(CNCCc4ccc(S(C)(=O)=O)cc4)cn3)cc2)cc1F` came in with an XC50 of 0.627 µM. `CC(C)c1ccc(NC(=O)c2ccc(CN3CCCN(Cc4cccc(O)c4)CC3)cc2)cc1` gave an XC50 of 0.679 µM. In the case of `CC1(CCCCN2CCC(c3c[nH]c4cnccc34)CC2)C(=O)Nc2cccc(Cl)c21` (stereo not given), the XC50 came to 0.868 µM. In the case of `CN1CCN(c2ccnc3ccc(NC(=O)Nc4ccc5c(c4)CCC5=O)cc23)CC1`, the XC50 is 0.33 µM.
